Source: article PMC12217463, “Functional and structural analyses of amino acid sequence variation in PDC β-lactamase reveal different mechanistic pathways toward cefiderocol resistance in Pseudomonas aeruginosa” (Antimicrobial Agents and Chemotherapy, 2025)
Values after ≈ are worked out from the molar mass of the structure shown.

Experiments:
PDC E219K = PDC E219K (Pseudomonas aeruginosa, UniProt P24735, E247K); experiment: Steady-state kinetics of purified β-lactamase; conditions: for kcat: direct hydrolysis at substrate concentration at least three times the Km; for Ratio for PDC E219K/PDC-1: ratio of kcat/Km (fold change in catalytic efficiency)
[1] = tested on: PAO1 producing the Ω-loop variants ∆P215-G222, E219K, and F121L + E219K; experiment: MIC, group of Ω-loop variants in PAO1; format: cell-based; conditions: Pseudomonas aeruginosa; range over PAO1 producing ∆P215-G222, E219K and F121L + E219K
Source text: (§1) We took advantage of a previously constructed and characterized laboratory collection of recombinant P. aeruginosa PAO1 isolates expressing different blaPDC variants, but specifically enriched for this work with additional variants, following the previously described methodology ([17]). […] The final collection comprised 40 recombinant isolates (20 in PAO1 and 20 in PAO ΔpiuC) producing the wild-type PDC-1 variant from PAO1 and 19 derivatives carrying specific amino acid substitutions previously associated with the development of resistance to ceftazidime/avibactam, ceftolozane/tazobactam, or cefiderocol: T70I, F121L, P153L, G156D, A200T, G202S, ΔG202-E219, G214R, P215L, P215S, ΔP215-G222, D217N, E219K, E219G, E219D, S226ins, L293P, F121L + E219K, and F121L + G222S.
(§2) The MICs of ceftazidime, ceftazidime/avibactam, ceftolozane/tazobactam, cefepime, and cefiderocol were determined in triplicate, for all isolates, by reference broth microdilution assays. Avibactam and tazobactam were fixed at 4 mg/L. All assays were performed using cation-adjusted Mueller-Hinton broth (CAMHB), except for cefiderocol, which was determined in all cases using iron-depleted CAMHB, prepared according to CLSI M100 guidelines ([40]). EUCAST v.15.0 clinical breakpoints and guidelines (http://www.eucast.org/clinical_breakpoints/) were used for reference purposes. […]

[2] = tested on: PAO ΔpiuC producing PDC P215L; experiment: Cefiderocol MIC, iron uptake-deficient host; format: cell-based; conditions: Pseudomonas aeruginosa
Source text: as §1
(§3) The MICs of ceftazidime, ceftazidime/avibactam, ceftolozane/tazobactam, cefepime, and cefiderocol were determined in triplicate, for all isolates, by reference broth microdilution assays. Avibactam and tazobactam were fixed at 4 mg/L. All assays were performed using cation-adjusted Mueller-Hinton broth (CAMHB), except for cefiderocol, which was determined in all cases using iron-depleted CAMHB, prepared according to CLSI M100 guidelines ([40]). EUCAST v.15.0 clinical breakpoints and guidelines (http://www.eucast.org/clinical_breakpoints/) were used for reference purposes. Reference strains Escherichia coli ATCC 25922, Klebsiella pneumoniae ATCC 700603, and P. aeruginosa ATCC 27853 were used as controls.

[3] = tested on: PAO ΔpiuC producing PDC E219G; experiment: Cefiderocol MIC, iron uptake-deficient host; format: cell-based; conditions: Pseudomonas aeruginosa
Source text: as §1, §3

[4] = tested on: PAO ΔpiuC producing PDC G156D; experiment: Cefiderocol MIC, iron uptake-deficient host; format: cell-based; conditions: Pseudomonas aeruginosa
Source text: as §1, §3

[5] = tested on: PAO ΔpiuC producing PDC P215S; experiment: Cefiderocol MIC, iron uptake-deficient host; format: cell-based; conditions: Pseudomonas aeruginosa
Source text: as §1, §3

[6] = tested on: PAO ΔpiuC producing PDC ∆G202-E219; experiment: Cefiderocol MIC, iron uptake-deficient host; format: cell-based; conditions: Pseudomonas aeruginosa
Source text: as §1, §3

[7] = tested on: PAO ΔpiuC producing PDC F121L + G220S; experiment: Cefiderocol MIC, iron uptake-deficient host; format: cell-based; conditions: Pseudomonas aeruginosa
Source text: as §1, §3

PDC L293P = PDC L293P (Pseudomonas aeruginosa, UniProt P24735, L320P); experiment: Steady-state kinetics of purified β-lactamase; conditions: for kcat: direct hydrolysis at substrate concentration at least three times the Km
[8] = tested on: E. cloacae AmpC variant with a ∆A294-P295 deletion; design: method as in PMID 32284381; conditions: relative to the parent enzyme; cited from earlier work
[9] = tested on: E219K or L293P substitutions combined with inactivating mutations affecting iron uptake (∆piuC); experiment: MIC, E219K or L293P with impaired iron uptake; format: cell-based; conditions: Pseudomonas aeruginosa
Source text: as §1, §2

[10] = tested on: PAO1 + blaPDC F121L + G220S; experiment: MIC, broth microdilution; format: cell-based; conditions: Pseudomonas aeruginosa
PAO1 + blaPDC F121L = experiment: MIC, broth microdilution; format: cell-based; conditions: Pseudomonas aeruginosa
Source text: as §1, §3

PAO1 + blaPDC A200T = experiment: MIC, broth microdilution; format: cell-based; conditions: Pseudomonas aeruginosa
Source text: as §1, §3

PAO1 + blaPDC E219D = experiment: MIC, broth microdilution; format: cell-based; conditions: Pseudomonas aeruginosa
Source text: as §1, §3

PAO1 + blaPDC G202S = experiment: MIC, broth microdilution; format: cell-based; conditions: Pseudomonas aeruginosa
Source text: as §1, §3

PAO1 + blaPDC G156D = experiment: MIC, broth microdilution; format: cell-based; conditions: Pseudomonas aeruginosa
Source text: as §1, §3

PAO1 + blaPDC E219K = experiment: MIC, broth microdilution; format: cell-based; conditions: Pseudomonas aeruginosa
Source text: as §1, §3

PAO1 + blaPDC S226ins = experiment: MIC, broth microdilution; format: cell-based; conditions: Pseudomonas aeruginosa, avibactam and tazobactam fixed at 4 mg/L, FDC in iron-depleted CAMHB
Source text: as §1, §3

PAO1 + blaPDC T70I = experiment: MIC, broth microdilution; format: cell-based; conditions: Pseudomonas aeruginosa
Source text: as §1, §3

PAO1 + blaPDC P153L = experiment: MIC, broth microdilution; format: cell-based; conditions: Pseudomonas aeruginosa
Source text: as §1, §3

PAO1 + blaPDC P215L = experiment: MIC, broth microdilution; format: cell-based; conditions: Pseudomonas aeruginosa
Source text: as §1, §3

PAO1 + blaPDC L293P = experiment: MIC, broth microdilution; format: cell-based; conditions: Pseudomonas aeruginosa
Source text: as §1, §3

PAO1 + blaPDC D217N = experiment: MIC, broth microdilution; format: cell-based; conditions: Pseudomonas aeruginosa
Source text: as §1, §3

PAO1 + blaPDC P215S = experiment: MIC, broth microdilution; format: cell-based; conditions: Pseudomonas aeruginosa
Source text: as §1, §3

PAO1 + blaPDC-1 (WT) = experiment: MIC, broth microdilution; format: cell-based; conditions: Pseudomonas aeruginosa, avibactam and tazobactam fixed at 4 mg/L, FDC in iron-depleted CAMHB
Source text: as §1, §3

[11] = tested on: PAO1 + blaPDC F121L + E219K; experiment: MIC, broth microdilution; format: cell-based; conditions: Pseudomonas aeruginosa
Source text: as §1, §3

PAO1 + blaPDC ∆P215-G222 = experiment: MIC, broth microdilution; format: cell-based; conditions: Pseudomonas aeruginosa, avibactam and tazobactam fixed at 4 mg/L, FDC in iron-depleted CAMHB
Source text: as §1, §3

PAO1 = experiment: MIC, broth microdilution; format: cell-based; conditions: Pseudomonas aeruginosa; PAO1 wild type, no plasmid-borne PDC; avibactam and tazobactam fixed at 4 mg/L; FDC in iron-depleted CAMHB
Source text: as §1, §3

PAO1 + blaPDC G214R = experiment: MIC, broth microdilution; format: cell-based; conditions: Pseudomonas aeruginosa
Source text: as §1, §3

[12] = tested on: P. aeruginosa isolates overproducing PDC variants; conditions: clinical strains, values generally remain below; cited from earlier work

CC(C)(O/N=C(\C(=O)N[C@@H]1C(=O)N2C(C(=O)[O-])=C(C[N+]3(CCNC(=O)c4ccc(O)c(O)c4Cl)CCCC3)CS[C@H]12)c1csc(N)n1)C(=O)O [FDC, cefiderocol]
increase in kcat values (PDC E219K; PDC E219K relative to PDC-1): ≈ 125 fold | Km (PDC E219K; PDC E219K, antibiotics: determined as Ki app with nitrocefin as reporter substrate, 10 mM PBS, pH 7.4, room temperature): 466 ± 120 µM | kcat (PDC E219K; PDC E219K, 10 mM PBS, pH 7.4, room temperature, listed as Cefiderocol): 0.45 ± 0.03 s⁻¹ | kcat (PDC E219K; PDC E219K, 10 mM PBS, pH 7.4, room temperature, listed as cefiderocol): 0.45 s⁻¹ | Ratio for PDC E219K/PDC-1 (PDC E219K; listed as Cefiderocol): 24.00 | Ratio for PDC E219K/PDC-1 (PDC E219K; listed as cefiderocol): ≈ 24 | MIC [1]: 2 to 4 µg/mL | MIC [2]: 8 µg/mL (≈ 10.6 µM) | MIC [3]: 8 µg/mL (≈ 10.6 µM) | MIC [4]: 8 µg/mL (≈ 10.6 µM) | MIC [5]: 8 µg/mL (≈ 10.6 µM) | MIC [6]: 8 µg/mL (≈ 10.6 µM) | MIC [7]: 8 µg/mL (≈ 10.6 µM) | improvement in substrate binding affinity (Km decrease) (PDC L293P; PDC L293P relative to PDC-1): ≈ 32 fold | Km (PDC L293P; PDC L293P, antibiotics: determined as Ki app with nitrocefin as reporter substrate, 10 mM PBS, pH 7.4, room temperature): 2.69 ± 0.1 µM | kcat (PDC L293P; PDC L293P, 10 mM PBS, pH 7.4, room temperature, listed as Cefiderocol): 0.0036 ± 0.0001 s⁻¹ | kcat (PDC L293P; PDC L293P, 10 mM PBS, pH 7.4, room temperature, listed as cefiderocol): 0.0036 s⁻¹ | Ratio for PDC L293P/PDC-1 (PDC L293P; ratio of kcat/Km (fold change in catalytic efficiency)): 33.75 | increase in catalytic efficiency [8]: ≈ 19 fold | MIC [9]: ≥ 32 µg/mL | MIC [10]: 0.25 µg/mL (≈ 0.332 µM) | MIC (PAO1 + blaPDC F121L): 0.5 µg/mL (≈ 0.665 µM) | MIC (PAO1 + blaPDC A200T): 0.5 µg/mL (≈ 0.665 µM) | MIC (PAO1 + blaPDC E219D): 0.5 µg/mL (≈ 0.665 µM) | MIC (PAO1 + blaPDC G202S): 0.5 µg/mL (≈ 0.665 µM) | MIC (PAO1 + blaPDC G156D): 0.5 µg/mL (≈ 0.665 µM) | MIC (PAO1 + blaPDC E219K): 4 µg/mL (≈ 5.32 µM) | MIC (PAO1 + blaPDC S226ins): 0.5 µg/mL | MIC (PAO1 + blaPDC T70I): 0.5 µg/mL (≈ 0.665 µM) | MIC (PAO1 + blaPDC P153L): 0.5 µg/mL (≈ 0.665 µM) | MIC (PAO1 + blaPDC P215L): 0.5 µg/mL (≈ 0.665 µM) | MIC (PAO1 + blaPDC L293P): 4 µg/mL (≈ 5.32 µM) | MIC (PAO1 + blaPDC D217N): 0.5 µg/mL (≈ 0.665 µM) | MIC (PAO1 + blaPDC P215S): 0.5 µg/mL (≈ 0.665 µM) | MIC (PAO1 + blaPDC-1 (WT)): 0.25 µg/mL | MIC [11]: 4 µg/mL (≈ 5.32 µM) | MIC (PAO1 + blaPDC ∆P215-G222): 2 µg/mL | MIC (PAO1): 0.125 µg/mL | MIC (PAO1 + blaPDC G214R): 1 µg/mL (≈ 1.33 µM) | MIC [12]: below 2 mg/L
